US5925731A, “Endothelin antagonist peptides” (Takeda Chemical Industries, Ltd., priority 1995, dated 1999)
*1 amine or outer side, *2 acyl side, *3 side chain or, on linkers, in order; H or OH if unused. Where a SMILES comes first, the peptide text is derived from it. [ ]: non-standard residue; d: D form. The star is where a group is joined. Piperazinyl(4-(2-MeOPh)) = COc1ccccc1N1CCN(*)CC1; Piperazinyl(4-Ph) = c1ccc(N2CCN(*)CC2)cc1; X3 = COc1ccc(C)cc1N1CCN(*)CC1; X2 = COc1cccc(N2CCN(*)CC2)c1; dNle = CCCC[C@@H](N)C(=O)O; X4 = Fc1ccccc1N1CCN(*)CC1; Nle = CCCC[C@H](N)C(=O)O; CO = O=C([*:1])[*:2]; X1 = C1CCCN(*)CC1; Moc = COC(=O)*; For = O=C*

Tests used:
[1] = target: T1, human endothelin receptor ETA (Homo sapiens, UniProt P25101); assay: Radioiodinated endothelin-1 binding to membrane fraction of CHO cells expressing human endothelin receptor ETA; conditions: radioactive-iodine-labeled endothelin-1, 25° C., one hour
T1 construct: expressed in transfected cells; host or cells: CHO cells (membrane fraction)
T1 sequence (P25101 21-427): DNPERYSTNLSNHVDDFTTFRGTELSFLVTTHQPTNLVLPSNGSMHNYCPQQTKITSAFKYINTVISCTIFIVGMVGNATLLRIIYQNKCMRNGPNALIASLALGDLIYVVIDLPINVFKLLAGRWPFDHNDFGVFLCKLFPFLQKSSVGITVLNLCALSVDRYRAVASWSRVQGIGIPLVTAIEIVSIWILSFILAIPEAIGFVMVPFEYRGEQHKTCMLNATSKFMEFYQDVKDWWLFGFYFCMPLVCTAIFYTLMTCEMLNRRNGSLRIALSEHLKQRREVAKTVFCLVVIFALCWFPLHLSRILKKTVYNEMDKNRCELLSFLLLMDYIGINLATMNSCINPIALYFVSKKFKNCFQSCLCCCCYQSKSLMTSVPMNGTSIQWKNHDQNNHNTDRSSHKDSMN
Procedure: (§1) The membrane fraction of CHO cells on which human endothelin receptor (ETA or ETB) was expressed was diluted to 0.15 mg/ml with an assaying buffer and dispensed to assaying tubes at 100 μl per tube. To this membrane fraction suspension were added 2 μl of a solution of endothelin-1 labeled with radioactive iodine (5 nM) and 3 μl of a 50% dimethyl sulfoxide of the test compound, followed by incubation at 25° C. for one hour. The membrane fraction suspension was diluted with 900 μl of an ice-cooled assaying buffer and centrifuged at 12,000×G for 10 minutes to separate supernatant and precipitate. The precipitate contained cell membranes and endothelin receptors embedded therein. The receptor-bound endothelin, labeled with radioactive iodine, was also recovered in the precipitate. The radioactive iodine in this precipitate was counted, using a gamma ray counter, to determine the amount of radioactive-iodine-labeled endothelin-1 bound to the endothelin receptors. The results of the quantitative determination were shown in the respective IC50 (nm) values in the following Table 2.

[2] = target: T2, human endothelin receptor ETB (Homo sapiens, UniProt P24530); assay: Radioiodinated endothelin-1 binding to membrane fraction of CHO cells expressing human endothelin receptor ETB; conditions: radioactive-iodine-labeled endothelin-1, 25° C., one hour
T2 construct: expressed in transfected cells; host or cells: CHO cells (membrane fraction)
T2 sequence (P24530 27-442): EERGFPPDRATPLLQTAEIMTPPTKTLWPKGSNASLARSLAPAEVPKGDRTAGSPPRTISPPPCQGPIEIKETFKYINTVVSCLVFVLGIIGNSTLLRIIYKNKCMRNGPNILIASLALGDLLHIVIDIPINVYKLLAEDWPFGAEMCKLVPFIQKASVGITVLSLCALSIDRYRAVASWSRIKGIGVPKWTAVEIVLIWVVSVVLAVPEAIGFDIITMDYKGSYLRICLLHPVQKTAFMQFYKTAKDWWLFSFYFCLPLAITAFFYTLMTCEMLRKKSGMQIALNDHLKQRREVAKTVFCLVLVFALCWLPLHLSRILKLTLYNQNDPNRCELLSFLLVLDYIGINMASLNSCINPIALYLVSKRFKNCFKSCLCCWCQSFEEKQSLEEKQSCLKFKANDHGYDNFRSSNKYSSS
Procedure: as §1

Row | Structure (SMILES) | IC50 [1] [nM] | IC50 [2] [nM]
1 | CCCC[C@@H](NC(=O)[C@@H](Cc1cn(C(=O)OC)c2ccccc12)NC(=O)[C@H](CC(C)C)NC(=O)N1CCCCCC1)C(=O)N[C@H](CC(=O)N1CCN(c2cccc(OC)c2)CC1)C(=O)O [W. Ex. 6, Hexamethyleniminocarbonyl-Leu-D-Trp(COOMe)-D-Nle-D-Asp (3MeOPhp)] ({X1-CO}-L[dW](Moc)[dNle][dD](X2)-OH) | 28 | 29
2 | CCCC[C@@H](NC(=O)[C@@H](Cc1cn(C(=O)OC)c2ccccc12)NC(=O)[C@H](CC(C)C)NC(=O)N1CCCCCC1)C(=O)N[C@@H](CC(=O)N1CCN(c2ccccc2)CC1)C(=O)O [W. Ex. 3, Hexamethyleniminocarbonyl-Leu-D-Trp(COOMe)-D-Nle-Asp (Php)] ({X1-CO}-L[dW](Moc)[dNle]D(Piperazinyl(4-Ph))-OH) | 45 | 34
3 | CCCC[C@@H](NC(=O)[C@@H](Cc1cn(C(=O)OC)c2ccccc12)NC(=O)[C@@H](NC(=O)N1CCCCCC1)[C@@H](C)CC)C(=O)N[C@H](CC(=O)N1CCN(c2ccccc2)CC1)C(=O)O [W. Ex. 9, Hexamethyleniminocarbonyl-Ile-D-Trp(COOMe)-D-Nle-D-Asp(Php)] ({X1-CO}-I[dW](Moc)[dNle][dD](Piperazinyl(4-Ph))-OH) | 21 | 15
4 | CCCC[C@@H](NC(=O)[C@@H](Cc1cn(C(=O)OC)c2ccccc12)NC(=O)[C@H](CC(C)C)NC(=O)N1CCCCCC1)C(=O)N[C@H](CC(=O)N1CCN(c2ccccc2OC)CC1)C(=O)O [W. Ex. 5, Hexamethyleniminocarbonyl-Leu-D-Trp(COOMe)-D-Nle-D-Asp (2MeOPhp)] ({X1-CO}-L[dW](Moc)[dNle][dD](Piperazinyl(4-(2-MeOPh)))-OH) | 7.1 | 7.9
5 | CCCC[C@@H](NC(=O)[C@@H](Cc1cn(C(=O)OC)c2ccccc12)NC(=O)[C@H](CC(C)C)NC(=O)N1CCCCCC1)C(=O)N[C@H](CCC(=O)O)C(=O)N1CCN(c2ccccc2)CC1 [W. Ex. 4, Hexamethyleniminocarbonyl-Leu-D-Trp(COOMe)-D-Nle-D-Glu-Php] ({X1-CO}-L[dW](Moc)[dNle][dE]-{Piperazinyl(4-Ph)}) | 23 | 23
6 | CCCC[C@@H](NC(=O)[C@@H](Cc1cn(C(=O)OC)c2ccccc12)NC(=O)[C@H](CC(C)C)NC(=O)N1CCCCCC1)C(=O)N[C@H](CC(=O)N1CCN(c2ccccc2F)CC1)C(=O)O [W. Ex. 8, Hexamethyleniminocarbonyl-Leu-D-Trp(COOMe)-D-Nle-D-Asp (2FPhp)] ({X1-CO}-L[dW](Moc)[dNle][dD](X4)-OH) | 18 | 29
7 | CCCC[C@H](NC(=O)N1CCCCCC1)C(=O)N[C@H](Cc1cn(C(=O)OC)c2ccccc12)C(=O)N[C@H](CCCC)C(=O)N[C@H](CC(=O)N1CCN(c2ccccc2)CC1)C(=O)O [W. Ex. 10, Hexamethyleniminocarbonyl-Nle-D-Trp(COOMe)-D-Nle-D-Asp(Php)] ({X1-CO}-[Nle][dW](Moc)[dNle][dD](Piperazinyl(4-Ph))-OH) | 34 | 75
8 | CCCC[C@@H](NC(=O)[C@@H](Cc1cn(C=O)c2ccccc12)NC(=O)[C@H](CC(C)C)NC(=O)N1CCCCCC1)C(=O)N[C@H](CC(=O)N1CCN(c2ccccc2)CC1)C(=O)O [W. Ex. 1, Hexamethyleniminocarbonyl-Leu-D-Trp(CHO)-D-Nle-D-Asp(Php)] ({X1-CO}-L[dW](For)[dNle][dD](Piperazinyl(4-Ph))-OH) | 1.8 | 130
9 | CCCC[C@@H](NC(=O)[C@@H](Cc1cn(C(=O)OC)c2ccccc12)NC(=O)[C@H](CC(C)C)NC(=O)N1CCCCCC1)C(=O)N[C@H](CC(=O)N1CCN(c2ccccc2)CC1)C(=O)O [W. Ex. 2, Hexamethyleniminocarbonyl-Leu-D-Trp(COOMe)-D-Nle-D-Asp(Php)] ({X1-CO}-L[dW](Moc)[dNle][dD](Piperazinyl(4-Ph))-OH) | 11 | 18
10 | CCCC[C@@H](NC(=O)[C@@H](Cc1cn(C(=O)OC)c2ccccc12)NC(=O)[C@H](CC(C)C)NC(=O)N1CCCCCC1)C(=O)N[C@H](CC(=O)N1CCN(c2cc(C)ccc2OC)CC1)C(=O)O [W. Ex. 7, Hexamethyleniminocarbonyl-Leu-D-Trp(COOMe)-D-Nle-D-Asp(2MeO-5MePhp)] ({X1-CO}-L[dW](Moc)[dNle][dD](X3)-OH) | 49 | 110
